Source: PubChem BioAssay (NCI)
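GI50 is the concentration that inhibits growth by half. TGI: total growth inhibition.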

What was measured:
Assay in all cases: growth of human tumour cells (NCI), 384-well format
NCI-H226 lung = tested on: NCI-H226 lung
NCI-H23 lung = tested on: NCI-H23 lung
NCI-H322M lung = tested on: NCI-H322M lung
NCI-H460 NSCLC = tested on: NCI-H460 NSCLC
NCI-H522 lung = tested on: NCI-H522 lung
NCI/ADR-RES ovarian = tested on: NCI/ADR-RES ovarian
OVCAR-3 ovarian = tested on: OVCAR-3 ovarian
OVCAR-4 ovarian = tested on: OVCAR-4 ovarian
OVCAR-5 ovarian = tested on: OVCAR-5 ovarian
OVCAR-8 ovarian = tested on: OVCAR-8 ovarian
PC-3 prostate = tested on: PC-3 prostate
RPMI-8226 leukemia = tested on: RPMI-8226 leukemia
RXF 393 renal = tested on: RXF 393 renal
SF-268 CNS = tested on: SF-268 CNS
SF-295 CNS = tested on: SF-295 CNS
SF-539 CNS = tested on: SF-539 CNS
SK-MEL-2 melanoma = tested on: SK-MEL-2 melanoma
SK-MEL-28 melanoma = tested on: SK-MEL-28 melanoma
SK-MEL-5 melanoma = tested on: SK-MEL-5 melanoma
SK-OV-3 ovarian = tested on: SK-OV-3 ovarian
SN12C renal = tested on: SN12C renal
SNB-19 CNS = tested on: SNB-19 CNS
SW-620 colon = tested on: SW-620 colon
T-47D breast = tested on: T-47D breast
TK-10 renal = tested on: TK-10 renal
U251 glioblastoma = tested on: U251 glioblastoma
UACC-257 melanoma = tested on: UACC-257 melanoma
UACC-62 melanoma = tested on: UACC-62 melanoma
UO-31 renal = tested on: UO-31 renal

Cc1noc(C)c1-c1cnc2c(-c3ccc(C(=O)O)cc3)cn([C@@H](C)c3ccccn3)c2c1
TGI (NCI-H226 lung): 7350 nM | GI50 (NCI-H23 lung): 366 nM | TGI (NCI-H23 lung): 6370 nM | GI50 (NCI-H322M lung): 619 nM | TGI (NCI-H322M lung): 58400 nM | GI50 (NCI-H460 NSCLC): 3170 nM | TGI (NCI-H460 NSCLC): > 100000 nM | GI50 (NCI-H522 lung): 15 nM | TGI (NCI-H522 lung): 391 nM | GI50 (NCI/ADR-RES ovarian): 1180 nM | TGI (NCI/ADR-RES ovarian): 17200 nM | GI50 (OVCAR-3 ovarian): 116 nM | TGI (OVCAR-3 ovarian): 10300 nM | GI50 (OVCAR-4 ovarian): 167 nM | TGI (OVCAR-4 ovarian): 739 nM | GI50 (OVCAR-5 ovarian): 525 nM | TGI (OVCAR-5 ovarian): 27400 nM | GI50 (OVCAR-8 ovarian): 234 nM | TGI (OVCAR-8 ovarian): 2390 nM | GI50 (PC-3 prostate): 467 nM | TGI (PC-3 prostate): > 100000 nM | GI50 (RPMI-8226 leukemia): 12 nM | TGI (RPMI-8226 leukemia): 152 nM | GI50 (RXF 393 renal): 254 nM | TGI (RXF 393 renal): 1290 nM | GI50 (SF-268 CNS): 1470 nM | TGI (SF-268 CNS): 27000 nM | GI50 (SF-295 CNS): 1460 nM | TGI (SF-295 CNS): 28900 nM | GI50 (SF-539 CNS): 292 nM | TGI (SF-539 CNS): 1680 nM | GI50 (SK-MEL-2 melanoma): 46.4 nM | TGI (SK-MEL-2 melanoma): 14000 nM | GI50 (SK-MEL-28 melanoma): 699 nM | TGI (SK-MEL-28 melanoma): > 100000 nM | GI50 (SK-MEL-5 melanoma): 61.6 nM | TGI (SK-MEL-5 melanoma): 3080 nM | GI50 (SK-OV-3 ovarian): 445 nM | TGI (SK-OV-3 ovarian): 9820 nM | GI50 (SN12C renal): 1040 nM | TGI (SN12C renal): > 100000 nM | GI50 (SNB-19 CNS): 554 nM | TGI (SNB-19 CNS): > 100000 nM | GI50 (SW-620 colon): 4750 nM | TGI (SW-620 colon): 73900 nM | GI50 (T-47D breast): 201 nM | TGI (T-47D breast): 3310 nM | GI50 (TK-10 renal): 34.3 nM | TGI (TK-10 renal): 989 nM | GI50 (U251 glioblastoma): 1770 nM | TGI (U251 glioblastoma): 30100 nM | GI50 (UACC-257 melanoma): 219 nM | TGI (UACC-257 melanoma): 9840 nM | GI50 (UACC-62 melanoma): 37.8 nM | TGI (UACC-62 melanoma): 1270 nM | GI50 (UO-31 renal): 323 nM | TGI (UO-31 renal): 13400 nM
